Data taken from ChEMBL document CHEMBL1201862, “PubChem BioAssay data set” (2004).
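Step 1: Grow cells in 96-well plates. Step 2: Expose to compound for 48 hours at 5 concentrations. Step 3: Interpolate endpoints linearly; if unreached, use highest concentration. GI50 = concentration required for 50% inhibition of growth.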 Calls of active or inactive are those of the source. Rule as the data show it: active = GI50 up to about 1.1 µM and inactive = higher.

Experiments:
Experiment in all cases: inhibition of tumour cell growth, NCI panel, 48 h
ACHN = tested on: ACHN
HT-29 = tested on: HT-29
NCI-H522 = tested on: NCI-H522
RXF 393 = tested on: RXF 393
HL-60 = tested on: HL-60
HOP-62 = tested on: HOP-62
OVCAR-8 = tested on: OVCAR-8
SF-295 = tested on: SF-295
SN12C = tested on: SN12C
OVCAR-3 = tested on: OVCAR-3
OVCAR-4 = tested on: OVCAR-4
UO-31 = tested on: UO-31
COLO 205 = tested on: COLO 205
NCI-H226 = tested on: NCI-H226
TK-10 = tested on: TK-10
SF-539 = tested on: SF-539
U-251 = tested on: U-251

Measured: GI50

COc1cc(NS(=O)(=O)c2ccc(C)cc2)c2nccnc2c1
inactive: ACHN 23.1 µM | HT-29 36.8 µM | NCI-H522 20.7 µM | RXF 393 14.3 µM | HL-60 13 µM | HOP-62 33.2 µM | OVCAR-8 26.7 µM | SF-295 26.7 µM | SN12C 39.3 µM | OVCAR-3 32.4 µM | OVCAR-4 39.6 µM | UO-31 34.4 µM | COLO 205 27 µM | NCI-H226 36.9 µM | TK-10 47 µM | SF-539 29.2 µM | U-251 22.1 µM

Cc1ccc(S(=O)(=O)N/N=C(\c2nc3ccc(Cl)cc3nc2O)C(O)c2cccc([N+](=O)[O-])c2)cc1 (stereo not drawn)
inactive: ACHN > 100 µM | HT-29 > 100 µM | NCI-H522 63.4 µM | RXF 393 > 100 µM | HL-60 > 100 µM | HOP-62 > 100 µM | OVCAR-8 > 100 µM | SF-295 > 100 µM | SN12C > 100 µM | OVCAR-3 > 100 µM | OVCAR-4 > 100 µM | UO-31 > 100 µM | COLO 205 > 100 µM | NCI-H226 > 100 µM | TK-10 > 100 µM | SF-539 > 100 µM | U-251 > 100 µM

N=C(N)N/N=C/c1c[nH]c2ccccc12
inactive: ACHN > 100 µM | HT-29 > 100 µM | NCI-H522 74.6 µM | RXF 393 > 100 µM | HL-60 > 100 µM | HOP-62 > 100 µM | OVCAR-8 > 100 µM | SF-295 > 100 µM | SN12C > 100 µM | OVCAR-3 > 100 µM | OVCAR-4 > 100 µM | UO-31 > 100 µM | COLO 205 > 100 µM | NCI-H226 > 100 µM | TK-10 > 100 µM | SF-539 > 100 µM | U-251 > 100 µM

O=C(/C=C/c1ccc[nH]1)c1ccccc1
inactive: ACHN > 100 µM | HT-29 > 100 µM | NCI-H522 > 100 µM | RXF 393 > 100 µM | HL-60 41.2 µM | HOP-62 > 100 µM | OVCAR-8 > 100 µM | SF-295 > 100 µM | SN12C > 100 µM | OVCAR-3 > 100 µM | OVCAR-4 > 100 µM | UO-31 > 100 µM | COLO 205 > 100 µM | NCI-H226 > 100 µM | TK-10 > 100 µM | SF-539 > 100 µM | U-251 > 100 µM
